Assay results: PMC3242765, “Inhibitors of Alphavirus Entry and Replication Identified with a Stable Chikungunya Replicon Cell Line and Virus-Based Assays” (PLoS ONE, 2011)
Structures can show the parent of a compound that is named as a salt.

Experiments:
CHIKV replicon = test: microbe, parasite or virus in culture; format: cell-based, Chikungunya virus (CHIKV)

SMILES	CHIKV replicon % left (CHIKV replicon) [%]	SFV replication % left (surviving fraction, remaining percentage of SFV replication) (SFV-Rluc) [%]
COc1ccc(O)c(C(C)(C)C)c1 [Butylated hydroxyanisole]	79.9	66.8
Nc1ccc(Cl)cc1C(=O)c1ccccc1F [2-Amino-5-chloro-2'-fluorobenzophenone]	82.2	167.4
CC(C)(CO)[C@@H](O)C(=O)NCCC(=O)O [Calcium pantothenate]	89.1	67.9
O=C(O)c1cc(O)cc(O)c1 [3,5-Dihydroxybenzoic acid]	87.8	6.9
CC12CCC(CC1=O)C2(C)C (racemic) [DL-Camphon, Campher (synth.)]	105.4	83.9
COc1cc(C(=O)O)ccc1O [Vanillic acid]	44.3	53.4
Oc1cc(O)c2c(c1)OC(c1ccc(O)c(O)c1)C(O)C2O (stereo not shown) [Leucocyanidin]	84.1	136.3
CNC(C)Cc1ccc(O)cc1.CNC(C)Cc1ccc(O)cc1.O=S(=O)(O)O (stereo not shown) [Pholedrine sulfate]	81.5	92.8
C=CCC1(CC=C)C(=O)NC(=O)NC1=O [Allobarbital]	121.1	45.6
CC(C)[N+](C)(CCOC(=O)C1c2ccccc2Oc2ccccc21)C(C)C [Propantheline bromide]	104.2	77.0
C[C@@H]1O[C@@H](Oc2c(-c3ccc(O)c(O)c3)oc3cc(O)cc(O)c3c2=O)[C@H](O)[C@H](O)[C@H]1O.O.O [Quercitrin dihydrate]	45.2	11.4
CCC1(c2ccccc2)C(=O)NCNC1=O [Primidone]	41.6	127.1
CC(=O)N(c1onc(C)c1C)S(=O)(=O)c1ccc(N)cc1 [Acetylsulfisoxazole]	82.1	40.4
O[C@H]1[C@H](O)[C@@H](O)[C@H](O)[C@@H](O)[C@H]1O [Inositol]	89.5	106.0
CN1C(=O)CN=C(c2ccc(Cl)cc2)c2cc(Cl)ccc21 [4'-Chlorodiazepam]	105.5	64.0
CNC[C@H](O)c1cccc(O)c1.Cl [L-Phenylephrine hydrochloride]	104.1	85.1
Cn1cnc2c1c(=O)[nH]c(=O)n2C [Theobromine]	70.2	112.1
CC(Cc1ccc(O)cc1)NCC(O)c1cc(O)cc(O)c1 (stereo not shown) [Fenoterol hydrobromide]	88.4	106.6
CC(=O)Nc1nnc(S(N)(=O)=O)s1 [Acetazolamide]	102.2	71.3

SMILES	CHIKV replicon % left (CHIKV replicon) [%]	SFV replication % left (surviving fraction, remaining percentage of SFV replication) (SFV-Rluc) [%]
CCN1C(=O)CC(=O)N(CC)C1=S	89.2	75.7
COc1ccc2cc([C@H](C)C(=O)O)ccc2c1 [Naproxen]	89.2	92.7
CCCCC1C(=O)N(c2ccccc2)N(c2ccc(O)cc2)C1=O (stereo not shown) [Oxyphenbutazone]	100.4	84.8
CC(Cc1ccc2c(c1)OCO2)NCC(O)c1ccc(O)c(O)c1 (stereo not shown) [Protokylol hydrochloride]	85.4	128.4
C[C@]12C=CC(=O)C=C1CC[C@@H]1[C@@H]2C(=O)C[C@@]2(C)[C@H]1CC[C@]2(O)C(=O)CO [Prednisone]	54.4	85.0
O=C(N[C@H](CO)[C@H](O)c1ccc([N+](=O)[O-])cc1)C(Cl)Cl [Chloramphenicol]	53.2	73.8
CC1=CC(=O)c2ccccc2C1=O [Menadione [2-Methyl-1,4-naphtoquinone]]	31.1	28.3
O=C1CN=C(c2ccccc2)c2cc([N+](=O)[O-])ccc2N1 [Nitrazepam]	98.8	46.0
CCC1(CC)C(=O)NC(=O)NC1=O [Barbital]	106.1	64.7
O=C(Oc1ccccc1)c1ccccc1O [Phenyl salicylate]	94.3	118.2
NS(=O)(=O)c1cc2c(cc1Cl)NCNS2(=O)=O [Hydrochlorothiazide]	70.2	121.2
Cc1cc(=O)oc2cc(O)ccc12 [4-Methylumbelliferone]	105.6	90.9
O=C1c2c(O)cccc2Cc2cccc(O)c21 [1,8-Dihydroxyanthrone]	40.9	27.2
CCN(CC)c1ccc2cc(-c3nc4ccccc4[nH]3)c(=O)oc2c1 [Coumarin 7]	51.8	37.3
Cc1cc(NS(=O)(=O)c2ccc(N)cc2)no1 [Sulfamethoxazole]	100.5	77.5
COc1cc(-c2oc3cc(O)cc(O)c3c(=O)c2O)ccc1O [Isorhamnetin]	19.3	28.9
O=C(O)c1cc2cc(Br)cc(Br)c2oc1=O [6,8-Dibromocoumarin carboxylic acid]	100.1	67.4
CCS(=O)(=O)CCn1c([N+](=O)[O-])cnc1C [Tinidazole]	100.5	104.1
CCN(CC)C(C)C(=O)c1ccccc1 (stereo not shown) [Diethylpropion hydrochloride]	29.6	47.1

SMILES	CHIKV replicon % left (CHIKV replicon) [%]	SFV replication % left (surviving fraction, remaining percentage of SFV replication) (SFV-Rluc) [%]
CC(C)(C)NCC(O)COc1ccccc1C#N (stereo not shown) [Bunitrolol]	58.9	40.7
C[C@@H]1O[C@@H](O[C@H]2C[C@@H](O)[C@]3(CO)[C@H]4[C@H](O)C[C@]5(C)[C@@H](C6=CC(=O)OC6)CC[C@]5(O)[C@@H]4CC[C@]3(O)C2)[C@H](O)[C@H](O)[C@H]1O [Ouabain]	89.2	90.9
Oc1cc(O)c2c(c1)O[C@H](c1ccc(O)c(O)c1)[C@H](O)C2 [(-)-Epicatechin]	79.6	97.1
O=c1c(-c2ccc(O)cc2)coc2cc(O)ccc12 [Daidzein]	104.4	76.6
COc1c2ccoc2cc2oc(=O)ccc12 [Bergapten, 5-Methoxypsoralen]	100.5	46.8
O=C1NC2NC(=O)NC2N1 (stereo not shown) [Acetyleneurea [acetylene carbamide]]	105.4	55.2
COC(=O)c1ccc(O)cc1 [Methyl p-hydroxybenzoate]	100.4	69.3
COc1ccc2oc(=O)cc(C)c2c1 [6-Methoxy-4-methylcoumarin]	85.4	66.6
Cc1c(Cl)cccc1Nc1ccccc1C(=O)O [Tolfenamic acid]	108.2	80.1
N[C@@H](Cc1ccc(O)c(O)c1)C(=O)O.N[C@@H](Cc1ccc(O)c(O)c1)C(=O)O	54.8	43.6
COc1ccc2c(c1OC)C(=O)O[C@@H]2[C@H]1c2c(cc3c(c2OC)OCO3)CCN1C [Noscapine]	78.4	103.5
COc1cc(/C=C/C(=O)O)ccc1O [Ferulic acid]	55.8	63.4
NCC(O)c1cccc(O)c1 (stereo not shown) [Norfenefrine]	96.6	126.3
CC(=O)Oc1c(C)cc(OCC(O)CNC(C)C)c(C)c1C (stereo not shown) [Metipranolol]	100.5	46.2
CC(C)(C)NCC(O)COc1cccc2c1CC(O)C(O)C2 (stereo not shown) [Nadolol]	63.3	60.5
Oc1cc(O)c2c(c1)O[C@H](c1cc(O)c(O)c(O)c1)[C@H](O)C2 [(-)-Epigallocatechin]	89.9	101.9
Cc1ccc(C(C)C)c(O)c1 [Thymol]	71.1	42.0
CC(C)Cc1ccc(C(C)C(=O)O)cc1 (stereo not shown) [Ibuprofen]	100.5	92.8
